The source of these data is publication PMC11979685, “Synthesis of Derivatives of the Antibiotic Albicidin: The N‐Terminal Fragment as Key to Control Potency and Resistance Mediated by the Binding Protein AlbA” (Chemistry (Weinheim an Der Bergstrasse, Germany), 2025).

The term MIC denotes the smallest concentration in the dilution series that meets the test's criterion for growth inhibition.

In assay [1] the test system is E. coli BW25113. Set-up: method as in PMID 36741192. To be noted: already published elsewhere; cited from earlier work.
The subject of assay [2] is AlbAL. Kind of assay: Transcription activation (TA) reporter assay, pAlbA-ilux luminescence. To be noted: luminescence normalized to 2nd Gen albicidin 2. In kind it is cell-based, Klebsiella oxytoca. The procedure: Finally, we investigated if synthetic variations of building block A are able to evade the effects of the resistance protein AlbA. Therefore, we carried out a qualitative growth inhibition assay with derivatives 4–24 in presence of an equimolar amount of purified AlbAS. After incubation of the cultures overnight, the growth of the bacteria was evaluated. The ability of AlbAS to sufficiently sequester an albicidin derivative from the supernatant allowed E. coli cells to accumulate in a visible cell pellet. Second, we performed a quantitative transcription‐activation reporter assay[22] to assess transcriptional regulation by AlbAL. The promoter sequence pAlbA was inserted into a reporter vector that encodes the ilux luminescence cassette.[22] The luminescence signals elicited by ligand binding of synthetic variations to AlbAL was compared and normalized to the signal induced by 2nd Gen albicidin 2 and are hereby referred to as relative transcription activation (TA^%). The combination of both assays prompted us to categorize the experimental outcomes (Figure 4) in four groups:
Figure 4 Characterization of AlbA resistance against derivatives 2, 4–24. GIA: Qualitative growth inhibition assay against E. coli DSM 1116. (−): Derivative unable to inhibit the growth of E. coli in presence of AlbAS. (+): Derivative inhibits growth of E. coli in presence of AlbAS. […] For details see SI Figure 9. Transcription activation (TA) assay: luminescence elicited by 2nd Gen albicidin 2 from the TA assay was normalized to 100 % and the luminescence signal of tested derivatives provided: relative luminescence [%]=luminescence [derivative]/luminescence [2]×100 %. Green bars indicate low relative luminescence (<40 %) and red bars indicate high relative luminescence (>50 %). Error bars show the standard deviations of triplicate measurements. TEXT PRINTED IN THE PICTURE: 2: E. coli inhibition +AlbA: − | 4: E. coli inhibition +AlbA: + | 9: E. coli inhibition +AlbA: + | 11: E. coli inhibition +AlbA: + | 12: E. coli inhibition +AlbA: + | 13: E. coli inhibition +AlbA: ~ | 14: E. coli inhibition +AlbA: − | 16: E. coli inhibition +AlbA: − | 17: E. coli inhibition +AlbA: − | 18: E. coli inhibition +AlbA: − | 19: E. coli inhibition +AlbA: − | 20: E. coli inhibition +AlbA: + | 21: E. coli inhibition +AlbA: − | 22: E. coli inhibition +AlbA: − | 23: E. coli inhibition +AlbA: − | 24: E. coli inhibition +AlbA: − […]
Transcription activation (TA) assay
Transcription reporter assays were conducted as described previously.[4] In short, E. coli BL21(DE3) were transformed with pET15b-AlbA, an expression construct without His-tag, and pCS-pAlbA-ilux, a reporter vector containing the pAlbA promoter and the improved bacterial luciferase reporter gene cassette ILUX.[7] […] Sixty data points were measured on a TECAN Infinite 200 microplate reader, after orbital shaking with for 10 min, with an amplitude of 3 mm, and a wait time of one minute between each measurement. At each time point, the absorbance at 600 nm ([…] bandwidth and 25 flashes) and the luminescence (500 ms integration time, no attenuation) were measured. Each assay was measured in triplicate at 30°C. The luminescence data was normalized to the OD before the background signal (wells with no albicidin added) was subtracted and the mean + standard deviation of each measurement point was calculated. […]
Background: Reporter assays use an easily measured gene product as a stand-in for the process of interest.

In assay [3] the test system is panel of gram-positive and gram-negative bacteria. In words: MIC against panel of bacteria. The class given is cell-based. To be noted: read-out: MIC vs B. subtilis and M. luteus. How it is done:
After completing the syntheses, the antibacterial activity of A‐variations 4–24 was assessed by determination of MIC values against a basic set of gram‐negative and gram‐positive bacteria (Table 1). The monocyclic derivatives 4–8 featuring a cyano‐, trifluoromethyl‐, methoxy‐ and fluoro‐ substituent in para‐position were very active against the gram–negative E. coli and S. typhimurium strains with MIC values in the same range as 3rd Gen albicidin 3 or ciprofloxacin which is the gold standard for gyrase inhibitors. […] These findings are in agreement with previous studies showing good activities for cyano, trifluoromethyl, methoxy and fluoro substituents in the para‐position of different aromatic rings in the building block A.[12, 13] The activity of the monocyclic derivatives 4–8 against the gram‐positive strains B. subtilis and M. luteus were similar but slightly less pronounced compared to the lead structure 3.
1.1 Determination of Minimal Inhibitory Concentrations (MIC)
Minimal inhibitory concentration (MIC) against selected bacterial strains values were determined according to the ninth edition of the Approved Standard M07-A9.[1] 20 μL of cryo stocks of bacterial strains were suspended in 20 mL LB medium (Lysogeny broth: 10 g/L peptone, 5 g/L yeast extract, 5 g/L NaCl). Following incubation overnight at 37°C, 200 rpm, the test inoculum was adjusted by 0.5 McFarland Standard in cation adjusted Mueller-Hinton broth (BBLTM Mueller-Hinton Broth II, Becton, Dickinson and Company, New Jersey, USA) to approximately 1x10^6 CFU mL-1. 95 μL of the bacterial inoculum were applied per well of a 96-well plate. Albicidin and albicidin derivatives 3−24 were dissolved in DMSO (100%) to an initial concentration of 2560 μg/mL and serially diluted in DMSO (100%). Initial solution and serial dilutions of Ciprofloxacin were prepared in 0.1 N HCL, respectively. […] Both microdilution trays and agar plates were incubated at 30−37°C for 16 h and subsequently analyzed for growth inhibition by naked eye. […]

Setting [4] is: gram-positive bacteria B. subtilis and M. luteus.

SMILES strings stand for the structures. Converted amounts (≈) assume the structure as drawn. Read-outs that look alike come from different tables or passages of the source.

Turning to `COc1c(NC(=O)c2ccc(NC(=O)c3ccc(NC(=O)[C@H](Cc4c[nH]nn4)NC(=O)c4ccc(NC(=O)c5ccc6nc(C)ccc6c5)cc4)cn3)c(OC)c2O)ccc(C(=O)O)c1O` [compound 16], the “MIC E. coli BW25113” value in assay [1] is 0.016 µg/mL (≈ 0.0179 µM).

In the case of `CCn1cc(C(=O)Nc2ccc(C(=O)N[C@@H](Cc3c[nH]nn3)C(=O)Nc3ccc(C(=O)Nc4ccc(C(=O)Nc5ccc(C(=O)O)c(O)c5OC)c(O)c4OC)nc3)cc2)c(=O)c2ccc(C)nc21` [compound 18], the “relative transcription activation (TA%), in words” value in assay [2] is “low”.

For the molecule `COc1c(NC(=O)c2ccc(NC(=O)c3ccc(NC(=O)[C@H](Cc4c[nH]nn4)NC(=O)c4ccc(NC(=O)c5ccc6nc[nH]c6c5)cc4)cn3)c(OC)c2O)ccc(C(=O)O)c1O` [compound 23], the “relative transcription activation (TA%), in words” value in assay [2] is “low”.

Regarding `COc1c(NC(=O)c2ccc(NC(=O)c3ccc(NC(=O)[C@H](Cc4c[nH]nn4)NC(=O)c4ccc(NC(=O)c5ccc6nn[nH]c6c5)cc4)cn3)c(OC)c2O)ccc(C(=O)O)c1O` [compound 24], the “relative transcription activation (TA%), in words” value in assay [2] is recorded as “low”.

With `CCn1cc(C(=O)Nc2ccc(C(=O)N[C@@H](Cc3c[nH]nn3)C(=O)Nc3ccc(C(=O)Nc4ccc(C(=O)Nc5ccc(C(=O)O)c(O)c5OC)c(O)c4OC)nc3)cc2)c(=O)c2cc3c(cc21)OCO3` [compound 19], the “relative transcription activation (TA%), in words” value in assay [2] was “low”.

In the case of `COc1c(NC(=O)c2ccc(NC(=O)c3ccc(NC(=O)[C@H](Cc4c[nH]nn4)NC(=O)c4ccc(NC(=O)c5cc6cc(O)ccc6[nH]5)cc4)cn3)c(OC)c2O)ccc(C(=O)O)c1O` [compound 21], the “relative transcription activation (TA%), in words” value in assay [2] is recorded as “intermediate”.

Take `COc1c(NC(=O)c2ccc(NC(=O)c3ccc(NC(=O)[C@H](Cc4c[nH]nn4)NC(=O)c4ccc(NC(=O)c5cnc6ccccc6c5)cc4)cn3)c(OC)c2O)ccc(C(=O)O)c1O` [compound 13]: the minimum inhibitory concentration (MIC) in assay [3] (setting [4]) is 0.125 µg/mL (≈ 0.142 µM).

On to `COc1c(NC(=O)c2ccc(NC(=O)c3ccc(NC(=O)[C@H](Cc4c[nH]nn4)NC(=O)c4ccc(NC(=O)c5cc6ccccc6cn5)cc4)cn3)c(OC)c2O)ccc(C(=O)O)c1O` [compound 12], for which the MIC in assay [3] came out at 0.063 µg/mL (≈ 0.0715 µM).

As for `COc1c(NC(=O)c2ccc(NC(=O)c3ccc(NC(=O)[C@H](Cc4c[nH]nn4)NC(=O)c4ccc(NC(=O)c5ccc6ccccc6n5)cc4)cn3)c(OC)c2O)ccc(C(=O)O)c1O` [compound 11], the MIC in assay [3] (setting [4]) was not above 0.016 µg/mL.
